Several values for one entry are separate records, joined by “and”; a condition that tells them apart may be missing. Equal entries are not always repeated. Each block holds one compound with its values, some of them ahead of it.
System: 883617-216-R-J1-PDC complex spheroid viability
Assay: Anticancer human tumor 883617-216-R-J1-PDC patient-derived bladder carcinoma cell line growth inhibition
Details: for viability, T/C: stronger effect = lower value
Outline: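 Complex spheroids of tumor cells with HUVEC and human MSCs, exposed to iadademstat combined with other agents. Each agent tested in half-log steps from near clinical Cmax (else 10 microM top), DMSO ≤0.25%.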

[1] = curve of first compound, second compound 0.1 µM
[2] = curve of first compound, second compound 0.316 µM
[3] = curve of first compound, second compound 1 µM
[4] = curve of first compound, second compound 3.16 µM
[5] = curve of first compound, second compound 10 µM
[6] = second compound 0.1 µM, first compound 0.0316 µM
[7] = second compound 0.1 µM, first compound 0.1 µM
[8] = second compound 0.1 µM, first compound 0.316 µM
[9] = second compound 0.1 µM, first compound 1 µM
[10] = second compound 0.1 µM, first compound 3.16 µM
[11] = second compound 0.1 µM, first compound 10 µM
[12] = second compound 0.316 µM, first compound 0.0316 µM
[13] = second compound 0.316 µM, first compound 0.1 µM
[14] = second compound 0.316 µM, first compound 0.316 µM
[15] = second compound 0.316 µM, first compound 1 µM
[16] = second compound 0.316 µM, first compound 3.16 µM
[17] = second compound 0.316 µM, first compound 10 µM
[18] = second compound 1 µM, first compound 0.0316 µM
[19] = second compound 1 µM, first compound 0.1 µM
[20] = second compound 1 µM, first compound 0.316 µM
[21] = second compound 1 µM, first compound 1 µM
[22] = second compound 1 µM, first compound 3.16 µM
[23] = second compound 1 µM, first compound 10 µM
[24] = second compound 3.16 µM, first compound 0.0316 µM
[25] = second compound 3.16 µM, first compound 0.1 µM
[26] = second compound 3.16 µM, first compound 0.316 µM
[27] = second compound 3.16 µM, first compound 1 µM
[28] = second compound 3.16 µM, first compound 3.16 µM
[29] = second compound 3.16 µM, first compound 10 µM
[30] = second compound 10 µM, first compound 0.0316 µM
[31] = second compound 10 µM, first compound 0.1 µM
[32] = second compound 10 µM, first compound 0.316 µM
[33] = second compound 10 µM, first compound 1 µM
[34] = second compound 10 µM, first compound 3.16 µM
[35] = second compound 10 µM, first compound 10 µM
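Also: exposure lasted seven days after three days of spheroid growth.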
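For viability, T/C in this document: 100% = DMSO vehicle control luminescence.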

SMILES: CC(C)c1c(-c2ccccc2)nc2c(C#N)c[nH]n2c1=O + NC1CC1c1ccc(-c2cccc(O)c2)cc1
IC50 [1]: > 10000 nM | IC50 [2]: > 10000 nM | IC50 [3]: > 10000 nM | IC50 [4]: > 10000 nM | IC50 [5]: > 10000 nM | viability, T/C [6]: 110% | viability, T/C [7]: 118% | viability, T/C [8]: 119% | viability, T/C [9]: 109% | viability, T/C [10]: 113% | viability, T/C [11]: 96% | viability, T/C [12]: 114% | viability, T/C [13]: 126% | viability, T/C [14]: 122% | viability, T/C [15]: 122% | viability, T/C [16]: 94.8% | viability, T/C [17]: 108% | viability, T/C [18]: 132% | viability, T/C [19]: 119% | viability, T/C [20]: 116% | viability, T/C [21]: 117% | viability, T/C [22]: 102% | viability, T/C [23]: 109% | viability, T/C [24]: 124% | viability, T/C [25]: 117% | viability, T/C [26]: 105% | viability, T/C [27]: 104% | viability, T/C [28]: 100% | viability, T/C [29]: 94.4% | viability, T/C [30]: 100% | viability, T/C [31]: 93.2% | viability, T/C [32]: 79.8% | viability, T/C [33]: 89.9% | viability, T/C [34]: 96.2% | viability, T/C [35]: 85.3%

SMILES: Cn1ncnc1C1c2n[nH]c(=O)c3cc(F)cc(c23)NC1c1ccc(F)cc1 (stereo not drawn) + NC1CCC(NC2CC2c2ccccc2)CC1
IC50 [1]: > 100 nM | IC50 [2]: > 100 nM | IC50 [3]: > 100 nM | IC50 [4]: > 100 nM | IC50 [5]: > 100 nM | viability, T/C (second compound 0.1 µM, first compound 0.000316 µM): 110% | viability, T/C (second compound 0.1 µM, first compound 0.001 µM): 110% | viability, T/C (second compound 0.1 µM, first compound 0.00316 µM): 103% | viability, T/C (second compound 0.1 µM, first compound 0.01 µM): 91.6% | viability, T/C [6]: 68.5% | viability, T/C [7]: 66.6% | viability, T/C (second compound 0.316 µM, first compound 0.000316 µM): 113% | viability, T/C (second compound 0.316 µM, first compound 0.001 µM): 111% | viability, T/C (second compound 0.316 µM, first compound 0.00316 µM): 97.6% | viability, T/C (second compound 0.316 µM, first compound 0.01 µM): 89.7% | viability, T/C [12]: 72.7% | viability, T/C [13]: 60% | viability, T/C (second compound 1 µM, first compound 0.000316 µM): 112% | viability, T/C (second compound 1 µM, first compound 0.001 µM): 113% | viability, T/C (second compound 1 µM, first compound 0.00316 µM): 99.2% | viability, T/C (second compound 1 µM, first compound 0.01 µM): 93.9% | viability, T/C [18]: 67.3% | viability, T/C [19]: 57.7% | viability, T/C (second compound 3.16 µM, first compound 0.000316 µM): 101% | viability, T/C (second compound 3.16 µM, first compound 0.001 µM): 102% | viability, T/C (second compound 3.16 µM, first compound 0.00316 µM): 99.2% | viability, T/C (second compound 3.16 µM, first compound 0.01 µM): 85.2% | viability, T/C [24]: 69.2% | viability, T/C [25]: 69.7% | viability, T/C (second compound 10 µM, first compound 0.000316 µM): 107% | viability, T/C (second compound 10 µM, first compound 0.001 µM): 106% | viability, T/C (second compound 10 µM, first compound 0.00316 µM): 108% | viability, T/C (second compound 10 µM, first compound 0.01 µM): 90.6% | viability, T/C [30]: 72.8% | viability, T/C [31]: 66.2%

SMILES: COc1ccc([C@@H](O)c2cc(-c3ncnc4cc(N5CCOCC5)ccc34)c(F)cc2Cl)nn1 + NC1CC1c1ccc(-c2cccc(O)c2)cc1
IC50 [1]: 877 nM | IC50 [2]: 1030 nM | IC50 [3]: 902 nM | IC50 [4]: 712 nM | IC50 [5]: 304 nM | viability, T/C [6]: 111% | viability, T/C [7]: 102% | viability, T/C [8]: 71.5% | viability, T/C [9]: 46.1% | viability, T/C [10]: 30.6% | viability, T/C [11]: 15.1% | viability, T/C [12]: 109% | viability, T/C [13]: 93.3% | viability, T/C [14]: 74.4% | viability, T/C [15]: 48.8% | viability, T/C [16]: 31.5% | viability, T/C [17]: 15.3% | viability, T/C [18]: 113% | viability, T/C [19]: 98.3% | viability, T/C [20]: 75% | viability, T/C [21]: 43.8% | viability, T/C [22]: 32.7% | viability, T/C [23]: 15.2% | viability, T/C [24]: 116% | viability, T/C [25]: 93.8% | viability, T/C [26]: 58.2% | viability, T/C [27]: 47.2% | viability, T/C [28]: 27% | viability, T/C [29]: 14.3% | viability, T/C [30]: 88% | viability, T/C [31]: 71.9% | viability, T/C [32]: 42.1% | viability, T/C [33]: 39% | viability, T/C [34]: 21.8% | viability, T/C [35]: 12.4%

SMILES: NS(=O)(=O)OCC1CC(n2ccc3c(NC4CCc5ccccc54)ncnc32)CC1O (stereo not drawn) + NC1CC1c1ccc(-c2cccc(O)c2)cc1
IC50 [1]: 221 nM | IC50 [2]: 230 nM | IC50 [3]: 219 nM | IC50 [4]: 202 nM | IC50 [5]: 155 nM | viability, T/C (second compound 0.1 µM, first compound 0.00949 µM): 123% | viability, T/C (second compound 0.1 µM, first compound 0.03 µM): 144% | viability, T/C (second compound 0.1 µM, first compound 0.0949 µM): 112% | viability, T/C (second compound 0.1 µM, first compound 0.3 µM): 27.5% | viability, T/C (second compound 0.1 µM, first compound 0.949 µM): 10.8% | viability, T/C (second compound 0.1 µM, first compound 3 µM): 8.35% | viability, T/C (second compound 0.316 µM, first compound 0.00949 µM): 124% | viability, T/C (second compound 0.316 µM, first compound 0.03 µM): 150% | viability, T/C (second compound 0.316 µM, first compound 0.0949 µM): 127% | viability, T/C (second compound 0.316 µM, first compound 0.3 µM): 26.7% | viability, T/C (second compound 0.316 µM, first compound 0.949 µM): 12.9% | viability, T/C (second compound 0.316 µM, first compound 3 µM): 8.2% | viability, T/C (second compound 1 µM, first compound 0.00949 µM): 135% | viability, T/C (second compound 1 µM, first compound 0.03 µM): 159% | viability, T/C (second compound 1 µM, first compound 0.0949 µM): 111% | viability, T/C (second compound 1 µM, first compound 0.3 µM): 28.3% | viability, T/C (second compound 1 µM, first compound 0.949 µM): 13% | viability, T/C (second compound 1 µM, first compound 3 µM): 10.2% | viability, T/C (second compound 3.16 µM, first compound 0.00949 µM): 122% | viability, T/C (second compound 3.16 µM, first compound 0.03 µM): 157% | viability, T/C (second compound 3.16 µM, first compound 0.0949 µM): 94.5% | viability, T/C (second compound 3.16 µM, first compound 0.3 µM): 29.7% | viability, T/C (second compound 3.16 µM, first compound 0.949 µM): 10.5% | viability, T/C (second compound 3.16 µM, first compound 3 µM): 9.87% | viability, T/C (second compound 10 µM, first compound 0.00949 µM): 126% | viability, T/C (second compound 10 µM, first compound 0.03 µM): 139% | viability, T/C (second compound 10 µM, first compound 0.0949 µM): 71.8% | viability, T/C (second compound 10 µM, first compound 0.3 µM): 27% | viability, T/C (second compound 10 µM, first compound 0.949 µM): 12.9% | viability, T/C (second compound 10 µM, first compound 3 µM): 9.23%

Now from value to compound, other results behind:

IC50 (curve of compound): < 0.949 nM
SMILES: CCc1c2c(nc3ccc(O)cc13)-c1cc3c(c(=O)n1C2)COC(=O)[C@]3(O)CC
viability, T/C (compound 0.000949 µM): 34.5% and 24.9% | viability, T/C (compound 0.003 µM): 27.7% and 18.2% | viability, T/C (compound 0.00949 µM): 22.8% and 18.7% | viability, T/C (compound 0.03 µM): 24.2% and 13% | viability, T/C (compound 0.0949 µM): 1.74% and 0.3% | viability, T/C (compound 0.3 µM): 0.21% and 0.19%

IC50 (curve of compound): 167 nM and 163 nM
SMILES: Nc1ccccc1NC(=O)c1ccc(CNC(=O)OCc2cccnc2)cc1
viability, T/C (compound 0.00949 µM): 110% and 105% | viability, T/C (compound 0.03 µM): 94.2% and 104% | viability, T/C (compound 0.0949 µM): 64.6% and 56.3% | viability, T/C (compound 0.3 µM): 33.3% and 36% | viability, T/C (compound 0.949 µM): 15.7% and 17.6% | viability, T/C (compound 3 µM): 0.87% and 1.11%

IC50 (curve of compound): 158 nM and 66 nM
SMILES: O=C(C=Cc1cccc(S(=O)(=O)Nc2ccccc2)c1)NO
viability, T/C (compound 0.00949 µM): 97.1% and 80.1% | viability, T/C (compound 0.03 µM): 76.2% and 59% | viability, T/C (compound 0.0949 µM): 51.9% and 41.6% | viability, T/C (compound 0.3 µM): 38.6% and 33.9% | viability, T/C (compound 0.949 µM): 28.6% and 14.6% | viability, T/C (compound 3 µM): 3.45% and 0.83%

IC50 (curve of compound): > 1000 nM and 870 nM
SMILES: Nc1ncn(C2CC(O)C(CO)O2)c(=O)n1 (stereo not drawn)
viability, T/C (compound 0.00316 µM): 103% and 98.2% | viability, T/C (compound 0.01 µM): 99.5% and 83.4% | viability, T/C (compound 0.0316 µM): 96.5% and 72.9% | viability, T/C (compound 0.1 µM): 86.3% and 58.4% | viability, T/C (compound 0.316 µM): 73.2% and 54.2% | viability, T/C (compound 1 µM): 67.8% and 49.4%
